Measured values taken from US20250115598A1 (Anaxis Pharma Pty Ltd, priority 2021, published 2025).
Like-named read-outs stand apart in the source and are kept apart here.

Key:
[1] = molecular target: human MLKL (full length) (Homo sapiens (Human), UniProt Q8NB16); assay: KINOMEscan binding assay, human MLKL (full length)
Outline: (§1)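 KINOMEscan competition binding using kinase-tagged T7 phage or HEK-293-produced DNA-tagged protein captured on ligand beads, with eluted protein quantified by qPCR. Compounds were run as an 11-point 3-fold series, top 30,000 nM, in 1% DMSO. Kd was fitted with the Hill equation, slope fixed at −1.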

[2] = molecular target: mouse MLKL (full length) (Mus musculus (Mouse), UniProt Q9D2Y4); assay: KINOMEscan binding assay, mouse MLKL (full length); conditions: Table 22
Description: Binding affinity of the test compounds for human MLKL (full length), mouse MLKL (full length), human RIPK1 and human RIPK3 was determined using the KINOMEscan™ technology developed by DiscoverX (USA; http://www.discoverx.com). The assay was conducted according to manufacturer instructions.
Kinase assays. For most assays, kinase-tagged T7 phage strains were grown in parallel in 24-well blocks in an E. coli host derived from the BL21 strain. E. coli were grown to log-phase and infected with T7 phage from a frozen stock (multiplicity of infection=0.4) and incubated with shaking at 32° C. until lysis (90-150 minutes). The lysates were centrifuged (6,000×g) and filtered (0.2 μm) to remove cell debris. The remaining kinases were produced in HEK-293 cells and subsequently tagged with DNA for qPCR detection. […] The liganded beads were blocked with excess biotin and washed with blocking buffer (SeaBlock (Pierce), 1% BSA, 0.05% Tween 20, 1 mM DTT) to remove unbound ligand and to reduce non-specific phage binding. […] All reactions were performed in polypropylene 384-well plates in a final volume of 20 μL. […] The kinase concentration in the eluates was measured by qPCR.
An 11-point 3-fold serial dilution of each test compound was prepared in 100% DMSO at 100× final test concentration and subsequently diluted to 1× in the assay (final DMSO concentration=1%). Most Kos were determined using a compound top concentration=30,000 nM.
KD for each test compound was calculated with a standard dose-response curve using the Hill equation (equation (1)): […]
The Hill Slope was set to −1.
Curves were fitted using a non-linear least square fit with the Levenberg-Marquardt algorithm.

[3] = system: Immortalised Mouse Dermal Fibroblasts (MDFs); assay: Cellular assay: inhibition of TSI induced necroptosis, CellTitre-Glo viability; conditions: Mus musculus, Fibroblast; MDF, 3 hours TSI cocktail, Table 24; read-out: Inhibition of TSI-induced necroptosis (IC50 cell-based assay) in MDF
Outline: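 Necroptosis induced for 3 h with TSI: rhTNF 100 ng/ml, Smac mimetic 500 nM, caspase inhibitor IDN-6556 10 μM. Mouse dermal fibroblasts had received compound (36 μM top, ten three-fold steps) 30 min beforehand. ATP-based viability scaled between untreated and TSI-only wells; IC50 taken as 4-parameter curve inflection.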

[4] = molecular target: human RIPK1 (Homo sapiens (Human), UniProt Q13546); assay: KINOMEscan binding assay, human RIPK1; conditions: Table 21
Outline: as §1

[5] = molecular target: human RIPK3 (Homo sapiens (Human), UniProt Q9Y572); assay: KINOMEscan binding assay, human RIPK3; conditions: Table 21
Outline: as §1

[6] = system: U937 human histiocytic leukemia cell line; assay: Cellular assay: inhibition of TSQ induced necroptosis, CellTitre-Glo viability; conditions: Homo sapiens, U-937; U937 cells, 48 hours, TSQ cocktail, Table 26; read-out: Inhibition of TSQ-induced necroptosis (IC50 cell-based assay)
Outline: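 U937 cells (20,000/well) treated with compound (10-point, 36 μM top, 1:3) plus TSQ cocktail (hTNF-Fc 100 ng/ml, Smac mimetic 500 nM, Q-VD-OPh 10 μM), 48 h at 37° C., 0.3% DMSO. Viability by CellTitre-Glo ATP luminescence; counter screen without TSQ measured compound-only effects on viability.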

[7] = system: U937 cells; assay: Counter screen: cell viability without the TSQ cocktail (off-target effect); design: species or system human; conditions: Homo sapiens, U-937, Table 26, read-out: Off-target effect (IC50 cell-based assay)
Outline: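 U937 cells (20000/well, HT-RPMI + 7.4% FBS) treated with compound (10-point 1:3 dilution from 36 μM, 0.3% DMSO) without the TSQ cocktail for 48 h at 37 °C/5% CO2. Viability read as ATP by CellTiter-Glo luminescence, flagging off-target cytotoxicity.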

[8] = molecular target: endogenous MLKL in U937 (Homo sapiens (Human), UniProt Q8NB16); assay: Degradation assay: endogenous MLKL in U937 (western blot); conditions: U937, 24 h incubation, read-out: Degradation of endogenous MLKL in U937 (DC50 cell-based assay)
Outline: (§2)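 Western blot band intensity of MLKL, adjusted to GAPDH loading and normalized to DMSO-only wells, gave percent degradation. Compound exposure lasted 24 h at final concentrations of 10–0.016 μM in 1:5 steps, in mouse dermal fibroblasts or human U937 cells.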

[9] = molecular target: endogenous MLKL in MDF (Mus musculus (Mouse), UniProt Q9D2Y4); assay: Degradation assay: endogenous MLKL in MDF (western blot); conditions: MDF cells, 24 h incubation with compound, MLKL adjusted for loading with GAPDH, normalized to DMSO only control, read-out: Degradation of endogenous MLKL in MDF (DC50 cell-based assay)
Outline: as §2

[10] = KINOMEscan, Table 21, read-out: Human MLKL (full-length) (KD)
[11] = hMLKL, Table 25, read-out: MLKL (KD)

human MLKL (full length), sequence (Q8NB16 whole entry): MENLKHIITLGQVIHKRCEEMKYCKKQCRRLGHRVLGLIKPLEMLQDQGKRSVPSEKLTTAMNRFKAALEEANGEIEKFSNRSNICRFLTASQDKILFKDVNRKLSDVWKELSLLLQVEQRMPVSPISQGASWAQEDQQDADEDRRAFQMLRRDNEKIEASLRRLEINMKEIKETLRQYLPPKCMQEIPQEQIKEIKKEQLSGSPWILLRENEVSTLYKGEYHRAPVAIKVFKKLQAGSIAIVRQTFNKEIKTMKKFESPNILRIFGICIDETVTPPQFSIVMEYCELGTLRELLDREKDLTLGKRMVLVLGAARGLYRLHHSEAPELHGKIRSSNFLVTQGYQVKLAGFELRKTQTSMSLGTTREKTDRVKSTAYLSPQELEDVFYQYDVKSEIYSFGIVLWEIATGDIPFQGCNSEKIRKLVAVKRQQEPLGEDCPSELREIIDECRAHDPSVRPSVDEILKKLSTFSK
endogenous MLKL in U937, sequence (Q8NB16 whole entry): as above
human RIPK3, sequence (Q9Y572 whole entry): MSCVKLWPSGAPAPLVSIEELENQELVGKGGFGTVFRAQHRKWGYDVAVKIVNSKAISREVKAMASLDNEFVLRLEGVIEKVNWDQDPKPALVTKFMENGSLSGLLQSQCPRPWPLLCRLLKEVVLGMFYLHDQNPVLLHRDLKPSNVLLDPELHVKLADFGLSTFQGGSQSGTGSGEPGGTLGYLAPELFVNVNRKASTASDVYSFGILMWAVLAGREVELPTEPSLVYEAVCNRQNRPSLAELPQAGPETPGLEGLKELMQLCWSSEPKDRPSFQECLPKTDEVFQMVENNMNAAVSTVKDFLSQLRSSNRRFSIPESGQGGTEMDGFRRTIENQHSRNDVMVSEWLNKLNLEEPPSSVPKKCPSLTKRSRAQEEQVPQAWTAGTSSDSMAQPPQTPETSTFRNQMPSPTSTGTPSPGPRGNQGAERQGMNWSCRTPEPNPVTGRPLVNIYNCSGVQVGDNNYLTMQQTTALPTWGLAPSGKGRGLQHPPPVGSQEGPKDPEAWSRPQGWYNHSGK
human RIPK1, sequence (Q13546 whole entry): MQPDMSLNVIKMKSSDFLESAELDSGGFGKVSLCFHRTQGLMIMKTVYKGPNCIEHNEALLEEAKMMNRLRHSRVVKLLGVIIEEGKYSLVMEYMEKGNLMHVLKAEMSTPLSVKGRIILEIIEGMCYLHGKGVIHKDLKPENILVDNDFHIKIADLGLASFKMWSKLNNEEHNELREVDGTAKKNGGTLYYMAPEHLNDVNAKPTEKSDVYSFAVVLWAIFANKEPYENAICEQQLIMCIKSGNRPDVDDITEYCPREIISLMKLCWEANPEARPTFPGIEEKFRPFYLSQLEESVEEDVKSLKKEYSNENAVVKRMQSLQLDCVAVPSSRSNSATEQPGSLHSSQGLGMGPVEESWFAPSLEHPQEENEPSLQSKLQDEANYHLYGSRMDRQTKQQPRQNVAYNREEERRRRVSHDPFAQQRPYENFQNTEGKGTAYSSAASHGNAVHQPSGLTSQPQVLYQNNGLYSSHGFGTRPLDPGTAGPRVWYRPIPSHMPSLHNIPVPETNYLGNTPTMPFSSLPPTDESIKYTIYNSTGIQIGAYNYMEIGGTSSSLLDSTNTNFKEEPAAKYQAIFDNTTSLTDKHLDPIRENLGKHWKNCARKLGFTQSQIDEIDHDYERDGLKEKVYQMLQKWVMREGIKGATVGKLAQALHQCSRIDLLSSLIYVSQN
mouse MLKL (full length), sequence (Q9D2Y4 whole entry): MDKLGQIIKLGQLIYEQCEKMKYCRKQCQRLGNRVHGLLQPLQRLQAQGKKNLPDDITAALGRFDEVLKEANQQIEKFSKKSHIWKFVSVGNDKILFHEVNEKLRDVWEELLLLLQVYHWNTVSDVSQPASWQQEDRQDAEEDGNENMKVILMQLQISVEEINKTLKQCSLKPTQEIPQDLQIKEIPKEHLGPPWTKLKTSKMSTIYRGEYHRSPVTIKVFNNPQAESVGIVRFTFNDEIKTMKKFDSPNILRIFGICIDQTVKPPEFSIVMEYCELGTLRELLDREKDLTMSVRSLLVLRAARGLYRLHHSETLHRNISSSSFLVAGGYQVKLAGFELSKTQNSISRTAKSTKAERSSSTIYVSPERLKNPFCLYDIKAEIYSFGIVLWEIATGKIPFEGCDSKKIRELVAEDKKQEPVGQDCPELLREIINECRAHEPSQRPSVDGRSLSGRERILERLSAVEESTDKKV
endogenous MLKL in MDF, sequence (Q9D2Y4 whole entry): as above

| Compound | Kd [1, 10] | Kd [2] | IC50 [3] | Kd [4] | Kd [5] | Kd [1, 11] | IC50 [6] | IC50 [7] | DC50 [8] | DC50 [9] |
| --- | --- | --- | --- | --- | --- | --- | --- | --- | --- | --- |
| C[C@H](Oc1cc(-c2nn(C)c3c(-c4cnn(C5CCOCC5)c4)cnc(N)c23)ccc1NS(=O)(=O)C(F)F)c1ccc(F)cc1 [Compound 19] | < 1 nM | < 1 nM | < 1000 nM |  |  |  |  |  |  |  |
| C[C@H](Oc1cc(-c2nn(C)c3c(-c4cnn(C)c4)cnc(N)c23)ccc1NS(=O)(=O)C(F)F)c1ccc(F)cc1 [Compound 20, (S)-N-(4-(4-amino-1-methyl-7-(1-methyl-1H-pyrazol-4-yl)-1H-pyrazolo[4,3-c]pyridin-3-yl)-2-(1-(4-fluorophenyl)ethoxy)phenyl)-1,1-difluoromethanesulfonamide] | < 1 nM | < 1 nM |  | > 10000 nM | > 10000 nM |  |  |  |  |  |
| C[C@H](Oc1cc(-c2coc3c(-c4cnn(C)c4)cnc(N)c23)ccc1NS(=O)(=O)C(F)F)c1ccc(F)cc1 [Compound 8, (S)-N-(4-(4-amino-7-(1-methyl-1H-pyrazol-4-yl)furo[3,2-c]pyridin-3-yl)-2-(1-(4-fluorophenyl)eth-oxy)phenyl)-1,1-difluoromethane-sulfonamide] | < 1 nM | < 1 nM |  | > 10000 nM | > 10000 nM |  |  |  |  |  |
| Nc1ncc(-c2cnn(C3CCOCC3)c2)c2occ(-c3ccc(NS(=O)(=O)C(F)F)c(OCc4ccc(F)cc4)c3)c12 [Compound 5, N-(4-(4-amino-7-(1-(tetrahydro-2H-pyran-4-yl)-1H-pyrazol-4-yl)furo[3,2-c]pyridin-3-yl)-2-((4-fluorobenzyl)oxy)phenyl)-1,1-difluoro-methanesulfonamide] | < 1 nM | < 1 nM |  |  |  |  |  |  |  |  |
| C[C@H](Oc1cc(-c2nn(C)c3c(-c4cnn(CCN5CCN(C)CC5)c4)cnc(N)c23)ccc1NS(=O)(=O)C(F)F)c1ccc(F)cc1 [Compound 60, (S)-N-(4-(4-amino-1-methyl-7-(1-(2-(4-metyhlpiperazin-1-yl)ethyl)-1H-pyrazol-4-yl)-1H-pyrazolo[4,3-c]pyridin-3-yl)-2-(1-(4-fluorophenyl)ethoxy)phenyl)-1,1-difluoromethanesulfonamide] |  | < 1 nM |  | > 10000 nM | > 10000 nM |  |  |  |  |  |
| C[C@H](Oc1cc(-c2nn(C)c3c(-c4cnn(CCO)c4)cnc(N)c23)ccc1NS(=O)(=O)C(F)F)c1ccc(F)cc1 [Compound 15, (S)-N-(4-(4-amino-7-(1-(2-hydroxyethyl)-1H-pyrazol-4-yl)-1-methyl-1H-pyrazolo[4,3-c]pyridin-3-yl)-2-(1-(4-fluorophenyl)ethoxy)phenyl)-1,1-difluoromethanesulfonamide] | < 1 nM | < 1 nM |  | > 10000 nM | > 10000 nM |  |  |  |  |  |
| CCS(=O)(=O)Nc1ccc(-c2n[nH]c3c(-c4cnn(CCCCCCC(=O)N[C@H](C(=O)N5C[C@H](O)C[C@H]5C(=O)NCc5ccc(-c6scnc6C)cc5)C(C)(C)C)c4)cnc(N)c23)cc1OCc1ccc(F)cc1 [Compound 1003, (2S,4R)-1-[(2S)-2-{7-[4-(4-amino-3-{4-ethanesulfonamido-3-[(4-fluorophenyl)methoxy]phenyl}-1H-pyrazolo[4,3-c]pyridin-7-yl)-1H-pyrazol-1-yl]heptanamido}-3,3-dimethylbutanoyl]-4-hydroxy-N-{[4-(4-methyl-1,3-thiazol-5-yl)phenyl]methyl}pyrrolidine-2-carboxamide] |  |  |  |  |  | < 10 nM | > 10000 nM | > 10000 nM | 1000 to 10000 nM |  |
| C[C@H](Oc1cc(-c2coc3c(-c4cnn(C5CCOCC5)c4)cnc(N)c23)ccc1NS(=O)(=O)C(F)F)c1ccc(F)cc1 [Compound 7, (S)-N-(4-(4-amino-7-(1-(tetrahydro-2H-pyran-4-yl)-1H-pyrazol-4-yl)furo[3,2-c]pyridin-3-yl)-2-(1-(4-fluoro-phenyl)eth-oxy)phenyl)-1,1-difluoro-methanesulfonamide] |  | < 1 nM |  | > 10000 nM | > 10000 nM |  |  |  |  |  |
| Cc1ncsc1-c1ccc(CNC(=O)[C@@H]2C[C@@H](O)CN2C(=O)[C@@H](NC(=O)CCCCCCn2cc(-c3cnc(N)c4c(-c5ccc(NS(=O)(=O)C(F)F)cc5)nn(C)c34)cn2)C(C)(C)C)cc1 [Compound 1022, (2S,4R)-1-[(2S)-2-[7-(4-{4-amino-3-[4-(difluoromethanesulfonamido)phenyl]-1-methyl-1H-pyrazolo[4,3-c]pyridin-7-yl}-1H-pyrazol-1-yl)heptanamido]-3,3-dimethylbutanoyl]-4-hydroxy-N-{[4-(4-methyl-1,3-thiazol-5-yl)phenyl]methyl}pyrrolidine-2-carboxamide] |  |  |  |  |  | < 10 nM | < 1000 nM | > 10000 nM | < 1000 nM | < 1000 nM |
| CCS(=O)(=O)Nc1ccc(-c2n[nH]c3c(-c4cnn(CCOCCOCC(=O)N[C@H](C(=O)N5C[C@H](O)C[C@H]5C(=O)NCc5ccc(-c6scnc6C)cc5)C(C)(C)C)c4)cnc(N)c23)cc1OCc1ccc(F)cc1 [Compound 1005, (2S,4R)-1-[(2S)-2-[2-(2-{2-[4-(4-amino-3-{4-ethanesulfonamido-3-[(4-fluorophenyl)methoxy]phenyl}-1H-pyrazolo[4,3-c]pyridin-7-yl)-1H-pyrazol-1-yl]ethoxy}ethoxy)acetamido]-3,3-dimethylbutanoyl]-4-hydroxy-N-{[4-(4-methyl-1,3-thiazol-5-yl)phenyl]methyl}pyrrolidine-2-carboxamide] |  |  |  |  |  | < 10 nM | 1000 to 10000 nM | > 10000 nM | 1000 to 10000 nM |  |
| Cn1nc(-c2ccc(NS(=O)(=O)C(F)F)c(OCc3ccc(F)cc3)c2)c2c(N)ncc(-c3cnn(C4CCOCC4)c3)c21 [Compound 13, N-(4-(4-amino-1-methyl-7-(1-(tetrahydro-2H-pyran-4-yl)-1H-pyrazol-4-yl)-1H-pyrazolo[4,3-c]pyridin-3-yl)-2-((4-fluoro-benzyl)oxy)phenyl)-1,1-difluoromethane-sulfonamide] | < 1 nM | < 1 nM |  | > 10000 nM | > 10000 nM |  |  |  |  |  |
